Measurements published in paper PMC10950897, “VCF1 is a p97/VCP cofactor promoting recognition of ubiquitylated p97-UFD1-NPL4 substrates” (Nature Communications, 2024).
Entries after “also recorded” stand apart in the source; their conditions may differ.

Columns and labels:
[1] = tested on: p97-UFD1-NPL4 binding to ubiquitylated proteins; assay: FLAG IP: p97-UFD1-NPL4 binding to ubiquitylated proteins in U2OS cell extracts; assay type: biochemical, human; settings: U2OS total cell extracts, EBC buffer
Description: (§1) All in vitro binding experiments were performed in EBC or RIPA buffer as indicated. Recombinant Biotin-tagged K48-linked poly-ubiquitin chains (2−7) and K48-linked poly-ubiquitin chains (2−16) were purchased from R&D Systems and Enzo Life Science, respectively. Recombinant proteins were incubated with Strep-Tactin Sepharose (IBA), Glutathione agarose (Gold Biotechnology) or […] Fab-trap agarose (ChromoTek) overnight on an end-over-end rotator at 4 °C, washed six times with EBC or RIPA buffer, and resuspended in 2×Laemmli sample buffer. For p97, VCF1 or p47 pulldowns, antibodies (0.5 µg/sample) were coupled to agarose beads, incubated with recombinant proteins or cell lysates and washed with the indicated buffer. To assess p97-UFD1-NPL4 binding to ubiquitylated proteins in total cell extracts, U2OS cells were lysed in EBC buffer supplemented with protease and phosphatase inhibitors, sonicated and incubated on ice for 10 min. Lysates were cleared by centrifugation for 10 min at 16,100 × g. Cell lysate (40 µg) was added to recombinant proteins in EBC buffer, incubated overnight on the rotator with […] Fab-trap agarose (ChromoTek), and beads were washed six times.

[2] = tested on: p97-UFD1-NPL4 binding to K48-Ub2-7; assay: FLAG IP: p97-UFD1-NPL4 binding to K48-linked ubiquitin chains, purified proteins; assay type: biochemical, human; settings: purified proteins
Description: as §1

[3] = tested on: p97 with UFD1-NPL4, p47 or FAF1; assay: In vitro binding with p97 cofactors (GST, StrepTactin, p47, p97 or FLAG pulldown); parameters: species or system human
Description: as §1

p97 hexamer (His6-p97) = assay: Mass photometry; assay type: binding, human; settings: saturating VCF1, absence of other cofactors
Description: Mass photometry experiments were performed on a Refeyn One (Refeyn Ltd) mass photometer at room temperature. Measurements were run in triplicates, diluting 3 μl of protein sample (20 nM) in 15 μl PBS buffer loaded on a gasket (Grace Bio-Labs reusable CultureWell gaskets (GBL103250, Merck)) mounted on a glass microscope coverslip (0107222, Marienfeld). Experiments were performed with His6-p97 alone and in presence of saturating concentrations of full-length Strep-HA-VCF1. The molecular weight was obtained by contrast comparison with known molecular weight mass standard calibrants (NativeMark Unstained Protein Standard (LC0725), Thermo Fischer Scientific) measured on the same buffer and on the same day. Movies were recorded using AcquireMP (Refeyn Ltd, version 2022 R1), with a medium field of view and exposure time of 0.95 ms for the acquisition camera settings. A total of 6000 frames were recorded over a duration of one minute. Movies were processed and analysed with the DiscoverMP software (Refeyn Ltd, version 2022 R1) provided by the instrument manufacturer.

p97-UFD1-NPL4 = assay: Analytical gel filtration; assay type: binding, human; settings: equimolar p97, UFD1-NPL4, VCF1 (5 µM), pH 7.4
Description: For analytical gel filtration, p97 alone (5 µM hexamer), or p97 (5 µM hexamer) with UFD1-NPL4 (5 µM) and VCF1 (5 µM) were mixed in a total volume of 25 µl in SEC buffer (50 mM HEPES, pH 7.4; 150 mM NaCl). Samples were separated by size exclusion chromatography on a Superose 6 3.2/300 column (Cytiva) equilibrated in SEC buffer using an ÄKTA Purifier 10 FPLC system (GE Healthcare). After the column dead volume (0.35 column volumes), fractions were collected (120 µl) and analyzed by immunoblotting.

## VCF1: human FAM104A isoform 1, 186 amino acids (UniProt Q969W3); recombinant Strep-HA-tagged
[1]
  effect on p97-UFD1-NPL4 binding to ubiquitylated proteins: prominent ability of VCF1 to enhance p97-UFD1-NPL4 binding to ubiquitylated proteins; also recorded: fully dependent on the ubiquitin-binding ability of the UFD1-NPL4 complex
[2]
  effect on UFD1-NPL4 association with p97: no discernible impact on UFD1-NPL4 association with p97
[2]; FLAG IP
  effect on p97-UFD1-NPL4 binding to K48 ubiquitin chains: strong stimulatory impact on p97-UFD1-NPL4 binding to K48-linked poly-ubiquitin chains in vitro
[3]; StrepTactin pulldown
  co-purification of UFD1-NPL4 with immobilized VCF1: dependent on the presence of p97 and the p97-binding proficiency of VCF1
[3]; VCF1:p47 ratio approx. 1:3
  VCF1 in p47 IP: little if any VCF1 is detectable in the p47 IP
[3]; VCF1:p47 ratio approx. 2:1
  VCF1 in p47 IP: VCF1 now becomes detectable in p47 IPs
[3]; VCF1:p47 ratio approx. 8:1
  competition with p47 for p97: more efficiently outcompetes p47 binding to p97
[3]; high/increasing concentrations
  displacement of p97-bound cofactors: displaced p47 and UFD1-NPL4 from p97 in vitro
[3]; moderate concentrations of VCF1
  simultaneous binding with UFD1-NPL4, p47 or FAF1 to p97: clearly permissive for the simultaneous binding
[3]; purified Strep-HA-VCF1, no p97
  p97-independent enrichment in UFD1 pulldowns: modest p97-independent enrichment
[3]; purified proteins, no p97
  direct interaction with UFD1-NPL4: did not directly interact with UFD1-NPL4
p97 hexamer (His6-p97)
  VCF1 molecules bound per p97 hexamer: 2-3 molecules per p97 hexamer
p97-UFD1-NPL4
  comigration in size-exclusion chromatography: comigration of the p97-VCF1-UFD1-NPL4 complex
